Patent US4450269A, “Mono-5-substituted-3-chloro-4H-1,2,6-thiadiazin-4-one antifungal agents” (FMC Corporation, priority 1980, dated 1984)
Counter-ions that a name gives are not always drawn. Like-named read-outs stand apart in the source and are kept apart here.

Tests used:
[1] = test system: Pythium ultimum; assay: Mycelial growth test; assay type: cell-based; conditions: PU; for inhibition at 5 ppm / inhibition at 10 ppm / inhibition at 20 ppm / inhibition at 40 ppm: Globisporangium ultimum, 72 h, read-out: Percent Fungus Growth Inhibition; for Percent Fungus Growth Inhibition: 72 hours
[2] = test system: Pyricularia oryzae; assay type: cell-based; conditions: PO, 48 hours

SMILES | inhibition at 5 ppm [1] [%] | inhibition at 10 ppm [1] [%] | inhibition at 20 ppm ([1]; 20 ppm) [%] | inhibition at 40 ppm ([1]; 40 ppm) [%] | Spore Germination Rating ([2]; 1.0 ppm) | Spore Germination Rating ([2]; 2.5 ppm) | Spore Germination Rating ([2]; 10 ppm) | Spore Germination Rating ([2]; 40 ppm) | Percent Fungus Growth Inhibition ([1]; 20 ppm) [%] | Percent Fungus Growth Inhibition ([1]; 20 ppm, hydrochloride) [%] | Percent Fungus Growth Inhibition ([1]; 40 ppm, hydrochloride) [%] | Spore Germination Rating ([2]; 2.5 ppm, hydrochloride)
O=c1c(Cl)nsnc1Oc1ccccc1 [Compound 2, 3-chloro-5-phenoxy-4H--1,2,6-thiadiazin-4-one] | 0 | 42 | 100 | 100 | 3 (60-80) | 1 (10-40) | 0 (0-10) | 0 (0-10) | – | – | – | –
Cc1cc(Oc2nsnc(Cl)c2=O)cc(C)c1Br [Compound 60, 3-[(4-bromo-3,5-dimethyl)-phenoxy]-5-chloro-4H--1,2,6-thiadiazin-4-one] | 9 | 0 | 0 | 13 | 0 (0-10) | 0 (0-10) | 0 (0-10) | 0 (0-10) | – | – | – | –
Cc1ccc(Cl)c(Oc2nsnc(Cl)c2=O)c1 [Compound 56, 3-chloro-5-[(2-chloro-5-methyl)phenoxy]-4H--1,2,6-thiadiazin-4-one] | 0 | 67 | 100 | 100 | 0 (0-10) | 0 (0-10) | 0 (0-10) | 0 (0-10) | – | – | – | –
Cc1cc(C)cc(Oc2nsnc(Cl)c2=O)c1 [Compound 25, 3-chloro-5-(3,5-dimethylphenoxy)-4H--1,2,6-thiadiazin-4-one] | 0 | 47 | 100 | 100 | 3 (60-80) | 0 (0-10) | 0 (0-10) | 0 (0-10) | – | – | – | –
Nc1ccc(Oc2nsnc(Cl)c2=O)cc1 [Compound 26, 5-(4-aminophenoxy)-3-chloro-4H--1,2,6-thiadiazin-4-one] | 0 | 0 | – | 100 | 4 (80-100) | 2 (40-60) | 0 (0-10) | 0 (0-10) | 13 | – | – | –
O=c1c(Cl)nsnc1Oc1cccc2ccccc12 [Compound 32, 3-chloro-5(1-naphthoxy)-4H-1,2,6-thiadiazin-4-one] | 73 | 73 | 100 | 100 | 2 (40-60) | 0 (0-10) | 0 (0-10) | 0 (0-10) | – | – | – | –
O=C(Nc1ccccc1)Nc1ccc(Oc2nsnc(Cl)c2=O)cc1 [Compound 29, 3-chloro-5-[4-(3-phenylureido)-phenoxy]-4H--1,2,6-thiadiazin-4-one] | 0 | 0 | 0 | 0 | 4 (80-100) | 4 (80-100) | 4 (80-100) | 2 (40-60) | – | – | – | –
O=c1c(Cl)nsnc1Oc1ccccc1Br [Compound 34, 3-chloro-5-(2-bromophenoxy)-4H-1,2,6,-thiadiazin-4-one] | 0 | 64 | 87 | 100 | 1 (10-40) | 0 (0-10) | 0 (0-10) | 0 (0-10) | – | – | – | –
O=c1c(Cl)nsnc1Oc1ccc(Br)cc1 [Compound 15, 3-chloro-5-(4-bromophenoxy)-4H--1,2,6-thiadiazin-4-one] | 47 | 76 | 80 | 76 | 0 (0-10) | 1 (10-40) | 0 (0-10) | 0 (0-10) | – | – | – | –
O=c1c(Cl)nsnc1Oc1c(Cl)c(Cl)c(Cl)c(Cl)c1Cl [Compound 31, 3-chloro-5-(pentachlorophenoxy)-4H--1,2,6-thiadiazine-4-one] | 0 | 0 | 0 | 0 | 0 (0-10) | 0 (0-10) | 0 (0-10) | 0 (0-10) | – | – | – | –
Nc1ccc(Oc2nsnc(Cl)c2=O)cc1 [Compound 27, 5-(4-aminophenoxy)-3-chloro-4H--1,2,6-thiadiazine-4-one hydrochloride] | – | – | – | – | – | – | – | – | – | 0 | 80 | 0 (0-10)
Cc1ccc(Oc2nsnc(Cl)c2=O)c(C)c1 [Compound 23, 3-chloro-5-(2,4-dimethylphenoxy)-4H--1,2,6-thiadiazin-4-one] | 62 | 69 | 71 | 100 | 4 (80-100) | 0 (0-10) | 0 (0-10) | 0 (0-10) | – | – | – | –
COc1cc(Oc2nsnc(Cl)c2=O)cc(OC)c1C(C)=O [Compound 61, 3-[(4-acetyl-3,5-dimethoxy)-phenoxy]-5-chloro-4H--1,2,6-thiadiazin-4-one] | 31 | 42 | 100 | 100 | 4 (80-100) | 4 (80-100) | 2 (40-60) | 1 (10-40) | – | – | – | –
